Source: patent publication US20220380432A1, “Acylated Calcitonin Mimetics” (KeyBioscience AG, priority 2018, published 2022)
Each block holds one molecule with its values, some of them ahead of it. Numbered stars: 1 amine (or outer) side, 2 acyl side, 3 side chain; on linkers, the order of the positions; unused ones are H or OH. Bridge positions count the residues as written; N and C are the ends. Square brackets hold non-standard residues; d marks the D form. Side chains are listed from the residue outwards. Ends that are not written are not given here. Peptide text beside a SMILES is read from it. * marks the point of attachment. C18 diacid = O=C(O)CCCCCCCCCCCCCCCCC(=O)*; γGlu = O=C(O)[C@H](CCC(=O)[*:2])N[*:1]; AEEA = NCCOCCOCC(=O)O; Aib = CC(C)(N)C(=O)O

Key:
[1] = tested on: male ZDF rats; experiment: Chronic study in male ZDF rats (food intake, body weight, FBG, HbA1c, OGTT); type: in vivo, rat; conditions: 62-day study
Method: A chronic study was performed in male ZDF rats. (obese homozygous recessive (fa/fa) strain: 370) (Charles River, USA). Rats were delivered 5 weeks of age. The rats were housed 2-3 per cage.
Rats were delivered to the animal facility of Nordic Bioscience at five weeks of age (DAY −6). Rats were acclimatized for three days. HbA1c and BW was registered (DAY −3). Rats were randomized based on HbA1c (primarily) and BW (secondly) at […]. The study was initiated at DAY 1.
Animals were dosed once daily with KBP-066 or saline (vehicle). Dosing with KBP-066A11.03 was performed once every third day. Dosing was administered subcutaneously (SC) around noon.
Saline: Dosage volume was 1 mL/kg. […]
DAY −3: HbA1c measurement DAY 1: (first day of study), rats were fasted for 6 h and a BG and blood sample was taken. […] Hb1Ac is measured during the OGTT at t=120 or t=180. […]
Food intake was monitored daily. Body weight was monitored daily for first three weeks, then twice weekly after week three.
Fasting blood glucose was monitored every two weeks using Accu-Check® Avia monitoring system (Roche Diagnostics, Rotkreuz, Switzerland): Measurement was taken from the tail vein (25 G needle).
Rats were non-fasted for the first (randomization) and second (after the second OGTT) HbA1c measurement. A single drop of blood was applied to the HbA1c cassette and the HbA1c was measured using a DCA Vantage Analyzer. […]

[2] = tested on: serum albumin from humans (HSA); type: binding, man (Homo sapiens)
Method: FIG. 14: Competitive ligand binding assay using radio labelled salmon calcitonin (^125I-sCT) as tracer and conducted 2% serum albumin from two different species, rat (Rattus norvegicus) and man (Homo sapiens). As a tracer 0.25 nM ^125I-sCT was used. A) Competitive binding assay conducted in 2% RSA. B) Competitive binding assay conducted in 2% HSA. Data as +/−SEM. To investigate whether the improved efficacy in the acute setting of acylation 4 and 5 could be translated to man, a competitive ligand binding assay was conducted to explore acylation binding to serum albumin in rodent and man.

[3] = molecular target: T1, Amylin Receptor (AMY-R) (Homo sapiens (Human), UniProt P30988); experiment: cell-based or functional assay
T1 sequence 1: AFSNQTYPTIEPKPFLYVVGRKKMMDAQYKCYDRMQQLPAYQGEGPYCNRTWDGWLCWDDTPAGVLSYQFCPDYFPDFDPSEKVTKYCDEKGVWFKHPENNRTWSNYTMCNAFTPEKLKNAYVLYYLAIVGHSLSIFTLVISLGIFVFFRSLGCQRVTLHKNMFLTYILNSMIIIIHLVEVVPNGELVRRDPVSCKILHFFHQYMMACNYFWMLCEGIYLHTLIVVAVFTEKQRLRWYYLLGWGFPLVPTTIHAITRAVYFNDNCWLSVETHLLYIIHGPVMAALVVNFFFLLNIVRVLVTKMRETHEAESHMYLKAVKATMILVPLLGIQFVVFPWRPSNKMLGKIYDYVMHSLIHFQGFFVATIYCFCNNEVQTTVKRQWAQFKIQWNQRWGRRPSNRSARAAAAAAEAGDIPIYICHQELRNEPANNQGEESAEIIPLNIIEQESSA
T1 sequence 2: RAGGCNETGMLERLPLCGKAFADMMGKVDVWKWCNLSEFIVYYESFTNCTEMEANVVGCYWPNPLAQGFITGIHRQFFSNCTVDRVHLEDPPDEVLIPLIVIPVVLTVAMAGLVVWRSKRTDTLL

[4] = molecular target: T2, Calcitonin Receptor (CTR) (Homo sapiens (Human), UniProt P30988); experiment: cell-based or functional assay
T2 sequence: T1 sequence 1

Molecule: CSNLSTC(AiB)LGRLSQDLHRLQTYPKTDVGANAP [KBP-066]
fasting blood glucose (in words) [1]: reduced FBG in a dose dependent manner

EC50 in competitive binding (in words) [2]: no differences in EC50
Molecule: CC(=O)N[C@H]1CSSC[C@@H](C(=O)NC(C)(C)C(=O)N[C@@H](CC(C)C)C(=O)NCC(=O)N[C@@H](CCCCNC(=O)COCCOCCNC(=O)COCCOCCNC(=O)CC[C@H](NC(=O)CCCCCCCCCCCCCCCCC(=O)O)C(=O)O)C(=O)N[C@@H](CC(C)C)C(=O)N[C@@H](CO)C(=O)N[C@@H](CCC(N)=O)C(=O)N[C@@H](CC(=O)O)C(=O)N[C@@H](CC(C)C)C(=O)N[C@@H](Cc2c[nH]cn2)C(=O)N[C@@H](CCCNC(=N)N)C(=O)N[C@@H](CC(C)C)C(=O)N[C@@H](CCC(N)=O)C(=O)N[C@H](C(=O)N[C@@H](Cc2ccc(O)cc2)C(=O)N2CCC[C@H]2C(=O)N[C@@H](CCCCN)C(=O)N[C@H](C(=O)N[C@@H](CC(=O)O)C(=O)N[C@H](C(=O)NCC(=O)N[C@@H](C)C(=O)N[C@@H](CC(N)=O)C(=O)N[C@@H](C)C(=O)N2CCC[C@H]2C(N)=O)C(C)C)[C@@H](C)O)[C@@H](C)O)NC(=O)[C@H]([C@@H](C)O)NC(=O)[C@H](CO)NC(=O)[C@H](CC(C)C)NC(=O)[C@H](CC(N)=O)NC(=O)[C@H](CO)NC1=O [KBP-356] (Ac-CSNLSTC[Aib]LGK([AEEA-AEEA-γGlu-C18 diacid])LSQDLHRLQTYPKTDVGANAP-NH2; disulfide 1-7 (inferred))

β-arrestin Fold Recruitment EC50 values (10^-9 M) [3]: 301 nM | β-arrestin Fold Recruitment EC50 values (10^-9 M) [4]: 197 nM
Molecule: Ac-CSNLSTCMLGRLSQELHRLQTYPKTDVGANAPK (not fully specified (residue 33); ends and bridges not checked) [KBP-318]
